Experimental findings from ChEMBL document CHEMBL3714710, “Diaminopyrimidines as P2X3 and P2X2/3 modulators” (2010) are described below.

Activity calls are given as the source filed them. No cut-off for these calls is given here.

The target of the assay is T1, P2X purinoceptor 3 (Rattus norvegicus) (UniProt P49654).
T1 sequence (whole entry): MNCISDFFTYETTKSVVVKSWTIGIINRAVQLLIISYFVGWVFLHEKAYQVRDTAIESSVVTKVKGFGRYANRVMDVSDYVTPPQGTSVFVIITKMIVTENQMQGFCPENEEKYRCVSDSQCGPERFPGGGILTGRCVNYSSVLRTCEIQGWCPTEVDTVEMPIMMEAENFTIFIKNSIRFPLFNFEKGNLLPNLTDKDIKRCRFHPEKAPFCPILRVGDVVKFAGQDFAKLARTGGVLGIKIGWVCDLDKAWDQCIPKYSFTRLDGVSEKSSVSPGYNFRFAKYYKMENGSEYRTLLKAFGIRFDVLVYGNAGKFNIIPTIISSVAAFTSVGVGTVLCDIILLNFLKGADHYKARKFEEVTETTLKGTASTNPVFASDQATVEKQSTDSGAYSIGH
The experiment in a line: Antagonist activity against rat P2X3 receptor expressed in CHOK1 cells assessed as inhibition of alpha,beta-meATP-induced calcium response incubated for 20 mins by Fluo-3AM dye based FLIPR assay. The conditions noted are these: CHO-K1. In kind it is functional, cell-based.

Turning to `Cc1nccc2cc(Oc3cnc(N)nc3N)c(C(C)C)cc12`, the inhibition result is “Active”.
Take `Cc1cccc2cc(C(C)C)c(Oc3cnc(N)nc3N)cc12`: the inhibition result is “Active”.
Consider `CC(C)c1cc2cccnc2cc1Oc1cnc(N)nc1N`, for which the inhibition entry is “Active”.
In the case of `Cc1ccc2nc(C(C)C)c(Oc3cnc(N)nc3N)cc2c1`, the inhibition entry was “Active”.
For the molecule `Cc1cccc2cc(Oc3cnc(N)nc3N)c(C(C)C)nc12`, the inhibition result is “Active”.
Take `COc1ccc2cc(Oc3cnc(N)nc3N)c(C(C)C)cc2c1`: the inhibition entry is “Active”.
For the molecule `Nc1ncc(Oc2cc3ccccc3cc2I)c(N)n1`, the inhibition entry was “Active”.
In the case of `CC(C)c1cc2ncccc2cc1Oc1cnc(NC(CO)CO)nc1N`, the inhibition result was “Active”.
Take `Cc1cccc2cc(Oc3cnc(N)nc3N)c(C(C)C)cc12`: the inhibition result was “Active”.
Consider `CC(C)c1nc2ccccc2cc1Oc1cnc(N)nc1N`, for which the inhibition result is “Active”.
